According to ChEMBL document CHEMBL1201862, “PubChem BioAssay data set” (2004):
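Five concentrations, 48 hours, 96-well plates. Here, GI50 denotes the concentration required for 50% inhibition of growth.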 Active and inactive are the calls of the source. Rule as the data show it: active = GI50 up to about 1.1 µM and inactive = higher.

Columns and labels:
Assay in all cases: growth of human tumour cells (NCI), 48 h
UO-31 = tested on: UO-31
U-251 = tested on: U-251
RPMI-8226 = tested on: RPMI-8226
DMS-114 = tested on: DMS-114
TK-10 = tested on: TK-10
HCT-116 = tested on: HCT-116
XF498 = tested on: XF498
SK-MEL-2 = tested on: SK-MEL-2
HOP-18 = tested on: HOP-18
NCI-H460 = tested on: NCI-H460
RXF 631 = tested on: RXF 631
SW-620 = tested on: SW-620
SNB-19 = tested on: SNB-19
SK-MEL-5 = tested on: SK-MEL-5
OVCAR-4 = tested on: OVCAR-4
DLD-1 = tested on: DLD-1
SF-295 = tested on: SF-295
HT-29 = tested on: HT-29
SK-MEL-28 = tested on: SK-MEL-28
K562 = tested on: K562
SR = tested on: SR
HCC 2998 = tested on: HCC 2998
ACHN = tested on: ACHN
KM-20L2 = tested on: KM-20L2
LOX IMVI = tested on: LOX IMVI
A549 = tested on: A549
HOP-62 = tested on: HOP-62
IGROV-1 = tested on: IGROV-1
OVCAR-5 = tested on: OVCAR-5
SF-268 = tested on: SF-268
HCT-15 = tested on: HCT-15
LXFL 529 = tested on: LXFL 529
SNB-78 = tested on: SNB-78
UACC-62 = tested on: UACC-62
UACC-257 = tested on: UACC-257
HL-60 = tested on: HL-60
HOP-92 = tested on: HOP-92
M19-MEL = tested on: M19-MEL
M14 = tested on: M14
KM12 = tested on: KM12
CCRF-CEM = tested on: CCRF-CEM
DMS-273 = tested on: DMS-273
A498 = tested on: A498
NCI-H226 = tested on: NCI-H226
SNB-75 = tested on: SNB-75
RXF 393 = tested on: RXF 393
NCI-H23 = tested on: NCI-H23
786-0 = tested on: 786-0
Malme-3M = tested on: Malme-3M
CAKI-1 = tested on: CAKI-1
NCI-H522 = tested on: NCI-H522
OVCAR-3 = tested on: OVCAR-3
EKVX = tested on: EKVX
SF-539 = tested on: SF-539
OVCAR-8 = tested on: OVCAR-8
SK-OV-3 = tested on: SK-OV-3
SN12C = tested on: SN12C
MOLT-4 = tested on: MOLT-4

In the case of O=C(O)CCC(NC(=O)c1ccc(Nc2nc3ccccc3nc2-c2cccs2)cc1)C(=O)O (stereo not drawn), the GI50 (UO-31) is reported as > 100 µM (inactive), the GI50 (U-251) is reported as > 100 µM (inactive) and the GI50 (RPMI-8226) is reported as > 100 µM (inactive). For the same compound, the GI50 (DMS-114) was > 100 µM (inactive), the GI50 (TK-10) was > 100 µM (inactive) and the GI50 (HCT-116) was > 100 µM (inactive). For the same compound, the GI50 (XF498) was > 100 µM (inactive), the GI50 (SK-MEL-2) was > 100 µM (inactive) and the GI50 (HOP-18) was > 100 µM (inactive). For the same compound, the GI50 (NCI-H460) was > 100 µM (inactive), the GI50 (RXF 631) was > 100 µM (inactive) and the GI50 (SW-620) was > 100 µM (inactive). For the same compound, the GI50 (SNB-19) was > 100 µM (inactive), the GI50 (SK-MEL-5) was > 100 µM (inactive) and the GI50 (OVCAR-4) was > 100 µM (inactive). For the same compound, the GI50 (DLD-1) was > 100 µM (inactive), the GI50 (SF-295) was > 100 µM (inactive) and the GI50 (HT-29) was > 100 µM (inactive). The GI50 (SK-MEL-28) was > 100 µM (inactive), the GI50 (K562) was > 100 µM (inactive) and the GI50 (SR) was > 100 µM (inactive). For the same compound, the GI50 (HCC 2998) was > 100 µM (inactive), the GI50 (ACHN) was > 100 µM (inactive) and the GI50 (KM-20L2) was > 100 µM (inactive). The GI50 (LOX IMVI) was > 100 µM (inactive), the GI50 (A549) was > 100 µM (inactive) and the GI50 (HOP-62) was > 100 µM (inactive). For the same compound, the GI50 (IGROV-1) was > 100 µM (inactive), the GI50 (OVCAR-5) was > 100 µM (inactive) and the GI50 (SF-268) was > 100 µM (inactive). For the same compound, the GI50 (HCT-15) was > 100 µM, the GI50 (LXFL 529) was > 100 µM (inactive) and the GI50 (SNB-78) was > 100 µM (inactive). The GI50 (UACC-62) was > 100 µM (inactive), the GI50 (UACC-257) was > 100 µM (inactive) and the GI50 (HL-60) was > 100 µM (inactive). The GI50 (HOP-92) was > 100 µM (inactive), the GI50 (M19-MEL) was > 100 µM (inactive) and the GI50 (M14) was > 100 µM (inactive). For the same compound, the GI50 (KM12) was > 100 µM (inactive), the GI50 (CCRF-CEM) was > 100 µM (inactive) and the GI50 (DMS-273) was > 100 µM (inactive). For the same compound, the GI50 (A498) was > 100 µM (inactive), the GI50 (NCI-H226) was > 100 µM (inactive) and the GI50 (SNB-75) was > 100 µM (inactive). For the same compound, the GI50 (RXF 393) was > 100 µM (inactive), the GI50 (NCI-H23) was > 100 µM (inactive) and the GI50 (786-0) was > 100 µM (inactive). For the same compound, the GI50 (Malme-3M) was > 100 µM (inactive), the GI50 (CAKI-1) was > 100 µM (inactive) and the GI50 (NCI-H522) was > 100 µM (inactive). For the same compound, the GI50 (OVCAR-3) was > 100 µM (inactive), the GI50 (EKVX) was > 100 µM (inactive) and the GI50 (SF-539) was > 100 µM (inactive). The GI50 (OVCAR-8) was > 100 µM (inactive), the GI50 (SK-OV-3) was > 100 µM (inactive) and the GI50 (SN12C) was > 100 µM (inactive). For the same compound, the GI50 (MOLT-4) was > 100 µM (inactive).
